From patent US11339171B2, “MDM2 inhibitors” (Gan & Lee Pharmaceuticals, priority 2017, dated 2022)
Values joined by “and” are separate entries in the source; they are usually repeats but may differ in a detail not shown here. Identical values can stand only once. Like-named read-outs stand apart in the source and are kept apart here.

Columns and labels:
MDM2 = target: T1, MDM2 (Homo sapiens, UniProt Q00987); experiment: Inhibition test of MDM2-P53 (GST-MDM2, Biotin-P53, Anti-GST-Tb, SA-XL665); assay type: binding
T1 construct: made in house
How it was run: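 Binding was measured by TR-FRET with GST-MDM2 at 4 nM final in PBS with 0.1% BSA, 5 mM DTT and 1 mM AEBSF. Compounds were tested as twelve-point 5-fold dilutions and incubated with the detection mix for 90 min at 25 °C with shaking before plate-reader reading and curve fitting.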

[1] = Pharmacokinetics in ICR mice after intravenous and intragastric administration; assay type: in vivo; conditions: for F*: PO 5 mg/kg vs IV 2 mg/kg, mean; for MRT last: read-out: MRT(0-t); for MRT inf: read-out: MRT(0-∞); for Vd: read-out: Vz
How it was run: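 Plasma concentrations by LC-MS/MS (range 1 to 2000 ng/ml) following single intravenous (2 mg/kg) or oral gavage (5 mg/kg) dosing of fasted male ICR mice, three per group. Vehicle 5% DMSO + 40% PEG400 + 55% (10% HP-β-CD in saline); standard PK parameters including bioavailability calculated.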

[2] = tested on: human osteosarcoma cell line SJSA-1; experiment: Inhibition of proliferation of human osteosarcoma cell line SJSA-1 (DAPI staining, In Cell Analyzer); conditions: Homo sapiens, SJSA-1, 72 h, read-out: IC50 (nM), inhibitory activity on proliferation of human osteosarcoma cell line SJSA-1, SJSA-1, incubated 72 h
[3] = ICR mice, IV 2 mg/kg, individual animals 301-303, 2 mg/kg
[4] = ICR mice, PO 5 mg/kg, individual animals 401-403, 5 mg/kg
[5] = male, ICR, mouse, plasma, iv, 2 mg/kg, ICR mice, IV 2 mg/kg, individual animals 301-303
[6] = male, ICR, mouse, plasma, iv, 2 mg/kg, ICR mice, IV 2 mg/kg, individual animals 301-303, read-out: AUC(0-t)
[7] = male, ICR, mouse, plasma, iv, 2 mg/kg, ICR mice, IV 2 mg/kg, individual animals 301-303, read-out: Cmax
[8] = male, ICR, mouse, plasma, iv, 2 mg/kg, ICR mice, IV 2 mg/kg, individual animals 301-303, read-out: Tmax
[9] = male, ICR, mouse, plasma, iv, 2 mg/kg, ICR mice, IV 2 mg/kg, individual animals 301-303, read-out: t1/2 (converted)
[10] = male, ICR, mouse, plasma, iv, 2 mg/kg, ICR mice, IV 2 mg/kg, mean of 3 animals
[11] = male, ICR, mouse, plasma, iv, 2 mg/kg, ICR mice, IV 2 mg/kg, mean of 3 animals, read-out: AUC(0-t)
[12] = male, ICR, mouse, plasma, iv, 2 mg/kg, ICR mice, IV 2 mg/kg, mean of 3 animals, read-out: Cmax
[13] = male, ICR, mouse, plasma, iv, 2 mg/kg, ICR mice, IV 2 mg/kg, mean of 3 animals, read-out: Tmax
[14] = male, ICR, mouse, plasma, iv, 2 mg/kg, ICR mice, IV 2 mg/kg, mean of 3 animals, read-out: t1/2 (converted)
[15] = male, ICR, mouse, plasma, po, 5 mg/kg, ICR mice, PO 5 mg/kg, individual animals 401-403
[16] = male, ICR, mouse, plasma, po, 5 mg/kg, ICR mice, PO 5 mg/kg, individual animals 401-403, read-out: AUC(0-t)
[17] = male, ICR, mouse, plasma, po, 5 mg/kg, ICR mice, PO 5 mg/kg, individual animals 401-403, read-out: Cmax
[18] = male, ICR, mouse, plasma, po, 5 mg/kg, ICR mice, PO 5 mg/kg, individual animals 401-403, read-out: t1/2 (converted)
[19] = male, ICR, mouse, plasma, po, 5 mg/kg, ICR mice, PO 5 mg/kg, mean of 3 animals
[20] = male, ICR, mouse, plasma, po, 5 mg/kg, ICR mice, PO 5 mg/kg, mean of 3 animals, read-out: AUC(0-t)
[21] = male, ICR, mouse, plasma, po, 5 mg/kg, ICR mice, PO 5 mg/kg, mean of 3 animals, read-out: Cmax
[22] = male, ICR, mouse, plasma, po, 5 mg/kg, ICR mice, PO 5 mg/kg, mean of 3 animals, read-out: Tmax
[23] = male, ICR, mouse, plasma, po, 5 mg/kg, ICR mice, PO 5 mg/kg, mean of 3 animals, read-out: t1/2 (converted)
[24] = male, ICR, mouse, plasma, po, 5 mg/kg, oral intragastric administration 5 mg/kg, read-out: AUC0-t
[25] = male, ICR, mouse, plasma, po, 5 mg/kg, oral intragastric administration 5 mg/kg, read-out: half-life (converted)

T1 sequence (Q00987 whole entry): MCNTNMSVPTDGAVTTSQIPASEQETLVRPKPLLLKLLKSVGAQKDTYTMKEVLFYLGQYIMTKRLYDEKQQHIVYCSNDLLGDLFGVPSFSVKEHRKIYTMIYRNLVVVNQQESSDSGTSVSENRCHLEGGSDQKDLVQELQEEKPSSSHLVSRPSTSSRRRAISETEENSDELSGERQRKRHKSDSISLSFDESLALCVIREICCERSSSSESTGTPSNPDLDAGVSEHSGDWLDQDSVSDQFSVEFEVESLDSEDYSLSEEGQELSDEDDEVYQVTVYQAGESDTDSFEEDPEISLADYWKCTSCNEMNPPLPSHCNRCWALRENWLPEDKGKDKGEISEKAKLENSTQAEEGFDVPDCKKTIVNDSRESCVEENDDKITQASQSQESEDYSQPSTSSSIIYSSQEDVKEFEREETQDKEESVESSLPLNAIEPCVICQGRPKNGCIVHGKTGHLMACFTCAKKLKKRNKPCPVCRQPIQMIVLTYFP

With `COc1cc(OC(C)C)ncc1-c1nc2c(n1C(C)C)[C@@]1(C(=O)Nc3cc(Cl)ccc31)N(c1cc(Cl)cnc1C)C2=O` [Example S-137, (S)-6-chloro-5′-(5-chloro-2-methylpyridin-3-yl)-2′-(6-isopropoxy-4-methoxypyridin-3-yl)-3′-isopropyl-3′H-spiro[dihydroindole-3,4′-pyrrolo[3,4-d]imidazole]-2,6′(5′H)-dione] the IC50 (MDM2) was 1.65 nM, the “AUC(0-t)” value [1, 3] was 15555.08 ng·h/mL and 10168.14 ng·h/mL and the “AUC(0-∞)” value [1, 3] was 15581.80 ng·h/mL and 10938.18 ng·h/mL. For the same compound, the CL [1, 3] was 2.14 mL/min/kg and 3.05 mL/min/kg, the Cmax [1, 3] was 5945.51 ng/mL and 5653.28 ng/mL and the “MRT(0-t)” value [1, 3] was 2.84 h and 1.50 h. For the same compound, the “MRT(0-∞)” value [1, 3] was 2.88 h and 1.97 h, the Vz [1, 3] was 0.52 L/kg and 0.41 L/kg and the t1/2 [1, 3] was 2.79 h and 1.57 h. The “F*” value ([1]; ICR mice) was 53.35%, the “AUC(0-t)” value [1, 4] was 16097.34 ng·h/mL and 14779.57 ng·h/mL and the “AUC(0-∞)” value [1, 4] was 17159.38 ng·h/mL and 15367.65 ng·h/mL. For the same compound, the Cmax [1, 4] was 5542.83 ng/mL and 6791.01 ng/mL, the “MRT(0-t)” value [1, 4] was 2.31 h and 2.03 h and the “MRT(0-∞)” value [1, 4] was 2.84 h and 2.35 h. For the same compound, the t1/2 [1, 4] was 1.98 h and 1.69 h, the AUC(0-inf) [1, 5] was 9740 ng·h/mL and the clearance [1, 5] was 3.42 mL/min/kg. The AUC(0-t) [1, 6] was 8960 ng·h/mL, the Cmax [1, 7] was 5260 ng/mL and the MRT last [1, 5] was 1.51 h. It also gave an MRT inf [1, 5] of 2.06 h, a Tmax [1, 8] of 0.08 h and a Vd [1, 5] of 0.5 L/kg. It also gave a half-life [1, 9] of 1.68 h, an AUC(0-inf) [1, 10] of 12100 ng·h/mL and a clearance [1, 10] of 2.87 mL/min/kg. It also gave an AUC(0-t) [1, 11] of 11600 ng·h/mL, a Cmax [1, 12] of 5620 ng/mL and an MRT last [1, 10] of 1.95 h. For the same compound, the MRT inf [1, 10] was 2.3 h, the Tmax [1, 13] was 0.083 h and the Vd [1, 10] was 0.48 L/kg. For the same compound, the half-life [1, 14] was 2.01 h, the AUC(0-inf) [1, 15] was 16200 ng·h/mL and the AUC(0-t) [1, 16] was 15400 ng·h/mL. It also gave a Cmax [1, 17] of 5880 ng/mL, an MRT last [1, 15] of 2.28 h and an MRT inf [1, 15] of 2.7 h. For the same compound, the Tmax ([1]; male, ICR, mouse, plasma, po, 5 mg/kg, ICR mice, PO 5 mg/kg, individual animals 401-403, read-out: Tmax) was 0.5 h, the half-life [1, 18] was 1.85 h and the AUC(0-inf) [1, 19] was 16200 ng·h/mL. The AUC(0-t) [1, 20] was 15400 ng·h/mL, the Cmax [1, 21] was 6070 ng/mL and the MRT last [1, 19] was 2.21 h. The MRT inf [1, 19] was 2.63 h, the Tmax [1, 22] was 0.5 h and the half-life [1, 23] was 1.84 h. For the same compound, the AUC(0-t) [1, 24] was 15400 ng·h/mL, the half-life [1, 25] was 1.84 h and the IC50 [2] was 65.9 nM.

With `COc1cc(C(F)(F)F)ncc1-c1nc2c(n1C(C)C)[C@@]1(C(=O)Nc3cc(Cl)ccc31)N(c1cc(Cl)ccc1C)C2=O` [Example S-138, (S)-6-chloro-5′-(5-chloro-2-methylphenyl)-3′-isopropyl-2′-(4-methoxy-6-(trifluoromethyl)pyridin-3-yl)-3′H-spiro[dihydroindole-3,4′-pyrrolo[3,4-d]imidazole]-2,6′(5′H)-dione] the IC50 (MDM2) was 1.04 nM, the “AUC(0-t)” value [1, 3] was 3427.99 ng·h/mL and 6387.52 ng·h/mL and the “AUC(0-∞)” value [1, 3] was 5237.36 ng·h/mL and 6445.45 ng·h/mL. The CL [1, 3] was 6.36 mL/min/kg and 5.17 mL/min/kg, the Cmax [1, 3] was 2002.99 ng/mL and 1828.27 ng/mL and the “MRT(0-t)” value [1, 3] was 4.04 h and 2.03 h and 4.19 h. The “MRT(0-∞)” value [1, 3] was 5.54 h and 4.42 h, the Vz [1, 3] was 2.37 L/kg and 1.70 L/kg and the t1/2 [1, 3] was 4.29 h and 3.81 h. For the same compound, the “F*” value ([1]; ICR mice) was 58.12%, the “AUC(0-t)” value [1, 4] was 7494.57 ng·h/mL and 8147.05 ng·h/mL and the “AUC(0-∞)” value [1, 4] was 8818.35 ng·h/mL and 9514.89 ng·h/mL. The Cmax [1, 4] was 1475.55 ng/mL and 1466.48 ng/mL, the “MRT(0-t)” value [1, 4] was 3.19 h and 3.27 h and the “MRT(0-∞)” value [1, 4] was 4.51 h and 4.52 h. The Tmax [1, 4] was 4.00 h and 2.00 h and 1.00 h, the t1/2 [1, 4] was 2.74 h and the AUC(0-inf) [1, 5] was 6130 ng·h/mL. The clearance [1, 5] was 5.44 mL/min/kg, the AUC(0-t) [1, 6] was 6060 ng·h/mL and the Cmax [1, 7] was 2170 ng/mL. It also gave an MRT inf [1, 5] of 4.32 h, a Tmax [1, 8] of 0.08 h and a Vd [1, 5] of 1.9 L/kg. For the same compound, the half-life [1, 9] was 4.03 h, the AUC(0-inf) [1, 10] was 5940 ng·h/mL and the clearance [1, 10] was 5.66 mL/min/kg. For the same compound, the AUC(0-t) [1, 11] was 5290 ng·h/mL, the Cmax [1, 12] was 2000 ng/mL and the MRT last [1, 10] was 3.42 h. The MRT inf [1, 10] was 4.76 h, the Tmax [1, 13] was 0.083 h and the Vd [1, 10] was 1.99 L/kg. For the same compound, the half-life [1, 14] was 4.04 h, the AUC(0-inf) [1, 15] was 9150 ng·h/mL and the AUC(0-t) [1, 16] was 7430 ng·h/mL. For the same compound, the Cmax [1, 17] was 1240 ng/mL, the MRT last [1, 15] was 3.56 h and the MRT inf [1, 15] was 5.12 h. For the same compound, the half-life [1, 18] was 2.69 h, the AUC(0-inf) [1, 19] was 9160 ng·h/mL and the AUC(0-t) [1, 20] was 7690 ng·h/mL. For the same compound, the Cmax [1, 21] was 1390 ng/mL, the MRT last [1, 19] was 3.34 h and the MRT inf [1, 19] was 4.72 h. It also gave a Tmax [1, 22] of 2.33 h, a half-life [1, 23] of 2.72 h and an AUC(0-t) [1, 24] of 7690 ng·h/mL. For the same compound, the half-life [1, 25] was 2.72 h and the IC50 [2] was 75.7 nM.
